Reference: patent US20030077709A1 (priority 2000, published 2003)
pIC50: −log10 of the molar value.

Legend:
[1] = tested on: control vector-introduced CHO cells; assay: cAMP production test toward LTB4 in control vector-introduced CHO cells; assay type: cell-based; conditions: 1 μM forskolin, 0 to 1 μM LTB4
Procedure: The CHO-dhfr(−) strain was inoculated at a density of 1×10^6 cells into a 10 cm Petri dish containing αMEM (supplemented with nucleic acids) medium/10% fetal bovine serum and cultured for 1 day and then subjected to gene transfer of 8 μg of pEF-BOS-dhfr-Jul22 and pEF-BOS-dhfr (control vector) using FuGENE6 (mfd. by Boehringer Mannheim). The gene-transferred cells were recovered 24 hours thereafter, suspended in αMEM (nucleic acid-free) medium/100 nM methotrexate (mfd. by Wako Pure Chemical Industries)/10% fetal bovine serum and then serially diluted and inoculated again into the 10 cm Petri dish. Colonies formed after 2 weeks were separately isolated and used as JULF2 stably expressing CHO cells.
Each of the JULF2 stably expressing CHO cells and control vector-introduced CHO cells was inoculated into a 24 well plate at a density of 1×10^5 cells. […] After 30 minutes at 37° C., the culture supernatant was discarded and the cells were lysed using a cAMP EIA System (BIOTRAK; mfd. by Amersham) cell lysis solution.
Measurement of the produced amount of cAMP in cells under each condition was carried out using the cAMP EIA System in accordance with the attached protocol. […] On the other hand, changes in the produced amount of cAMP by the addition of LTB4 were not found in the control vector-introduced CHO cells.

[2] = tested on: JULF2 stably expressing CHO cells; assay: Cell migration test of JULF2 stably expressing CHO cells toward LTB4; assay type: cell-based, human
Procedure: (§1) A 8 μm pore polycarbonate frame filter (mfd. by Neuroprobe) was treated with 10 μg/ml fibronectin (Asahi Technoglass)/PBS at 4° C. overnight. […] After 4 hours of culturing at 37° C. in a CO2 incubator, the frame filter was fixed with methanol and stained with Diff-Quik Staining Kit (International Reagents Corporation). The upper surface of this filter (the side on which cells were set) was wiped and air-dried and then absorbance at 595 nm was measured using a plate reader (Molecular Devices). Also, in order to examine pertussis toxin (PTX) sensitivity of the JULF2 stably expressing CHO cells, JULF2 stably expressing CHO cells treated with 50 ng/ml PTX for 20 hours were subjected to a cell migration test (FIG. 2).

[3] = tested on: rat JULF2 stably expressing CHO cell; assay: Cell migration test of rat JULF2 stably expressing CHO cell toward LTB4; assay type: cell-based; conditions: same method of Example 6
Procedure: as §1

JULF2 [4] = target: T1, JULF2 (Homo sapiens, UniProt Q9NPC1); assay: Screening of compounds which inhibit cAMP inhibition action by LTB4 using JULF2 stably expressing CHO cell; assay type: cell-based
T1 construct: expressed in transfected cells
T1 sequence (Q9NPC1 1-358): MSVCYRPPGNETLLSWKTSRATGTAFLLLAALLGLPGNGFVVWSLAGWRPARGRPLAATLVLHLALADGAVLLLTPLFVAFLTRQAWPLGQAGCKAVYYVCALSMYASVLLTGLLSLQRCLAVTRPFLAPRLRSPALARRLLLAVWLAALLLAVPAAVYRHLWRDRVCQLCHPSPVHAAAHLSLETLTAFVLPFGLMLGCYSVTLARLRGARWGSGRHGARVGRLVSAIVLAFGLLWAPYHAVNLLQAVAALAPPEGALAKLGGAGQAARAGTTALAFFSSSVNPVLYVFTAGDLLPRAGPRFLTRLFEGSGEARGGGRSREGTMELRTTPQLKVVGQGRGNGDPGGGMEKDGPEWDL
Source text: The compound A, compound B and compound C are commercially available reagents, and compound A is on the market as a code number 0199-0032 of ChemDiv, Inc, and compound B as a code number TPB-488 of InterBioScreen. […] In this connection, the property of the compound A to show anti-inflammatory effect is also described in Biochemical Pharmacology, 51, 737-742, 1996.

JULF2 [5] = target: T1, JULF2; assay: Inhibition of binding of [3H]LTB4 to JULF2 expressing cell membrane fraction
Procedure: The DNA fragment obtained in Example 1 coding for JULF2 was digested with XbaI and then cloned into pCEP4 (mfd. by Invitrogen) to be used as an expression vector (pCEP4-JULF2) for expressing JULF2. HEK293-EBNA strain was inoculated into a 15 cm Petri dish at a density of 5×10^6 cells and cultured for 1 day, and then 20 μg of pCEP4-JULF2 was subjected to gene transfer using Lipofectamine-2000 (mfd. by Gibco BRL). The gene-transferred cells were recovered 24 hours thereafter, washed, suspended in 20 mM Tris-HCl (pH 7.4)/5 mM EDTA and then homogenized using Polytron. After ultracentrifugation, the sediment was suspended in 20 mM Tris-HCl (pH 7.4) and used as a membrane fraction.
A liquid scintillation was added to the glass filter and the radioactivity was measured using a liquid scintillation counter.

[6] = tested on: JULF2 stably expressing CHO cell; assay: Cell migration inhibition by JULF2 antagonist for migration of JULF2 stably expressing CHO cell toward LTB4; assay type: cell-based, human; conditions: compound 0.03 to 100 μM in upper layer, 100 nM LTB4 in lower layer
Procedure: as §1

Molecule | changes in the produced amount of cAMP by the addition of LTB4 [1] | LTB4 concentration at which the migration activity becomes maximum (bell type chemotaxis) ([2]; JULF2 stably expressing CHO cells, 4 hours at 37° C., LTB4 in lower layer) | LTB4 concentration at which the migration activity becomes maximum (bell type chemotaxis) [3] | pIC50 (JULF2 [4]) | pIC50 (JULF2 [5]) | inhibition of cell migration toward LTB4 [6] | inhibition of migration toward LTB4 by PTX pretreatment ([2]; JULF2 stably expressing CHO cells treated with 50 ng/ml PTX for 20 hours)
CCCCC/C=C\C[C@@H](O)/C=C/C=C/C=C\[C@@H](O)CCCC(=O)O [LTB4, leukotriene B4] | not found | 30 nM | 100 nM |  |  |  | 
CCCCCCCCOc1ccc(C(=N)N)cc1.Cl [compound A, 4-octyloxybenzenecarboximidoamide hydrochloride] |  |  |  | 6.40 | 7.00 | inhibit cell migration toward LTB4 in a dose-dependent manner | 
CCCCCCOc1ccc(C(=N)NO)cc1 [compound B, 4-hexyloxy-N-hydroxybenzenecarboximidoamide] |  |  |  | 5.17 | 5.24 | inhibit cell migration toward LTB4 in a dose-dependent manner | 
pertussis toxin [PTX] |  |  |  |  |  |  | completely inhibited
